The results in this text go back to patent US9802960B2 (MILLENNIUM PHARMACEUTICALS, INC., priority 2014, dated 2017).

One experiment deals with Human VPS34 (Homo sapiens (Human), UniProt Q8NEB9). The experiment in a line: Human VPS34 enzyme assay (Adapta TR-FRET). Type of experiment: biochemical. Conditions: IC50 range class.
Human VPS34, sequence (Q8NEB9 whole entry): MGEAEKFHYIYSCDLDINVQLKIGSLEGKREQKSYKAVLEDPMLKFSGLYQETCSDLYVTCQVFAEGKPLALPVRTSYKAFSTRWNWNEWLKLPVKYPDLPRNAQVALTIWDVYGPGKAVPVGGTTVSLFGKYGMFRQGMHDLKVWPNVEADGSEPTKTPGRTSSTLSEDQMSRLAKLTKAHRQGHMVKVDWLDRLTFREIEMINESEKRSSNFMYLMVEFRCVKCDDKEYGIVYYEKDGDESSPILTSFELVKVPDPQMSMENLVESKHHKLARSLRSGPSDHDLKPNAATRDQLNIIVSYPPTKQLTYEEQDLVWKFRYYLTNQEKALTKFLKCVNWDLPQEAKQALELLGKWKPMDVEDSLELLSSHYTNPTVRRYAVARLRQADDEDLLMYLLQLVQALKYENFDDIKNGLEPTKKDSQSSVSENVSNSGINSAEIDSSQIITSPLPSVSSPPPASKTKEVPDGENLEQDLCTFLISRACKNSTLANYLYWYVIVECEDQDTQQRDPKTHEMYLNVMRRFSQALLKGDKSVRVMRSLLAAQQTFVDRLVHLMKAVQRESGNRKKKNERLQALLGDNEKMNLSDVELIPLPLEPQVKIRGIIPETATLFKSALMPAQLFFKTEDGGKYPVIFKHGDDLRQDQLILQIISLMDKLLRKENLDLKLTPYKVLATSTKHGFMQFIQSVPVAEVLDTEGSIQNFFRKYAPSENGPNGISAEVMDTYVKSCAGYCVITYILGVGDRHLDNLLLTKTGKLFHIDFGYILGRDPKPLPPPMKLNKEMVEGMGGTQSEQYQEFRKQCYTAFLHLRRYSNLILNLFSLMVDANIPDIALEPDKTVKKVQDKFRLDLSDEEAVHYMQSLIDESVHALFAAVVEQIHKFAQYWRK
As to `CC(=O)Nc1cc(-c2cnc(C)c(NS(=O)(=O)c3nccn3C)c2)ccn1` [Compound I-92, N-(6-methyl-5-{[(1-methyl-1H-imidazol-2-yl)sulfonyl]amino}-3,4′-bipyridin-2′-yl)acetamide], the IC50 (in general, the concentration that inhibits the measured activity by half) was 10 to 50 nM.

The same experiment, now with this note: compound concentration 1.11 μM.
In the case of `Cc1nccc(Nc2cc(-c3cnc(N)c(C(=O)N(C)C45CC(C4)C5)c3)ccn2)n1` [Compound I-277, 6-amino-N-(bicyclo[1.1.1]pent-1-yl)-N-methyl-2′-[(2-methylpyrimidin-4-yl)amino]-3,4′-bipyridine-5-carboxamide], the “Percent Inhibition” value came out at 100%. As for `CCc1c(-c2ccnc(Nc3ccnc(C)n3)c2)cnc(Cl)c1NS(=O)(=O)c1ccc(F)cc1F` [Compound I-259, N-{6-chloro-4-ethyl-2′-[(2-methylpyrimidin-4-yl)amino]-3,4′-bipyridin-5-yl}-2,4-difluorobenzene sulfonamide], the “Percent Inhibition” value came out at 79%.

The experiment is the same for the next values; noted with them: compound concentration 1.11 μM; read-out: Percent Inhibition.
For `Cc1nccc(Nc2cc(-c3cc(NS(=O)(=O)c4ccc(F)cc4F)c4ccnn4c3)ccn2)n1` [Compound I-486, 2,4-difluoro-N-(6-{2-[(2-methylpyrimidin-4-yl)amino]pyridin-4-yl}pyrazolo[1,5-a]pyridin-4-yl)benzenesulfonamide], the inhibition – broadly, the percentage by which the read-out fell short of the control – at 1.11 µM stood at 84%.

For the compound `COc1ncc(-c2ccnc(NC(C)=O)c2)cc1C(=O)N(C)c1ccc(F)cc1F` [Compound I-423, 2′-acetamido-N-(2,4-difluorophenyl)-6-methoxy-N-methyl-3,4′-bipyridine-5-carboxamide], the inhibition at 1.11 µM was more than 99%.

Take `CC(=O)Nc1cc(-c2cnc(N)c(S(=O)(=O)Cc3ccccc3)c2)ccn1` [Compound I-6, N-[6-amino-5-(benzylsulfonyl)-3,4′-bipyridin-2′-yl]acetamide]: the inhibition at 1.11 µM is more than 99%.

`Cc1nccc(Nc2cc(-c3cnc(C)c(C(=O)N4CCC4)c3)ccn2)n1` [Compound I-304, Azetidin-1-yl(6-methyl-2′-((2-methylpyrimidin-4-yl)amino)-3,4′-bipyridin-5-yl)methanone]: the inhibition at 1.11 µM stood at 96%. For `COC(=O)Nc1cc(-c2cncc(S(=O)(=O)N3CCOCC3)c2)ccn1` [Compound I-332, methyl[5-(morpholin-4-ylsulfonyl)-3,4′-bipyridin-2′-yl]carbamate], the inhibition at 1.11 µM is more than 99%. Take `CC(=O)Nc1cc(-c2cncc(N(C)C(=O)c3ccc(F)cc3F)c2)ccn1` [Compound I-397, N-(2′-acetamido-3,4′-bipyridin-5-yl)-2,4-difluoro-N-methylbenzamide]: the inhibition at 1.11 µM came out at 100%. The same measure, in the same setting: as for `Cc1ccc(Oc2cc(-c3ccnc(Nc4ccnc(C)n4)c3)cnc2C)nc1` [Compound I-390, 6-methyl-5-[(5-methylpyridin-2-yl)oxy]-N-(2-methylpyrimidin-4-yl)-3,4′-bipyridin-2′-amine], the figure is 98%; as for `CC(=O)Nc1cc(-c2cnc(N)c(N3CCCNS3(=O)=O)c2)ccn1` [Compound I-490, N-[6-amino-5-(1,1-dioxido-1,2,6-thiadiazinan-2-yl)-3,4′-bipyridin-2′-yl]acetamide], more than 99%. As for `COc1ncc(-c2ccnc(NC(C)=O)c2)cc1NS(=O)(=O)N(C)C` [Compound I-220, N-{5-[(dimethylsulfamoyl)amino]-6-methoxy-3,4′-bipyridin-2′-yl}acetamide], the inhibition at 1.11 µM amounted to 99%. `Cc1ncc(-c2ccnc(-n3cnc4c(C)nccc43)c2)cc1NS(=O)(=O)N(C)C` [Compound I-263, N,N-dimethyl-N-[6-methyl-2′-(4-methyl-1H-imidazo[4,5-c]pyridin-1-yl)-3,4′-bipyridin-5-yl]sulfuric diamide]: the inhibition at 1.11 µM worked out at 53%.

With `CC(=O)Nc1cc(-c2cncc(NC(=O)c3ccccc3)c2)ccn1` [Compound I-13, N-(2′-acetamido-3,4′-bipyridin-5-yl)benzamide], the inhibition at 1.11 µM came to 81%. On the same count and under the same terms, next, `COc1ncc(-c2ccnc(NC(C)=O)c2)cc1S(=O)(=O)NC12CC(C1)C2` [Compound I-470, N-[5-(bicyclo[1.1.1]pent-1-ylsulfamoyl)-6-methoxy-3,4′-bipyridin-2′-yl]acetamide]: more than 99%; `Cc1ncc(-c2ccnc(Nc3ccncn3)c2)cc1NS(=O)(=O)N(C)C` [Compound I-217, N,N-dimethyl-Y-[6-methyl-2′-(pyrimidin-4-ylamino)-3,4′-bipyridin-5-yl]sulfuric diamide]: more than 99%. For the compound `N=C(N)NC(=O)c1cc(-c2ccnc(Nc3ccncn3)c2)cnc1N` [Compound I-216, 6-Amino-N-carbamimidoyl-2′-(pyrimidin-4-ylamino)-3,4′-bipyridine-5-carboxamide], the inhibition at 1.11 µM is 97%. `CNc1ncc(-c2ccnc(NC(C)=O)c2)cc1N(C)S(C)(=O)=O` [Compound I-147, N-{6-(methylamino)-5-[methyl(methylsulfonyl)amino]-3,4′-bipyridin-2′-yl}acetamide]: the inhibition at 1.11 µM is more than 99%. On to `CC(=O)Nc1cc(-c2cncc(N3CCOc4cc(F)ccc4S3(=O)=O)c2)ccn1` [Compound I-405], for which the inhibition at 1.11 µM is more than 99%. On the same count and under the same terms, next, `Cc1nccc(Nc2cc(-c3cnc(C)c(OC4CCCC4)c3)ccn2)n1` [Compound I-471, 5-(cyclopentyloxy)-6-methyl-N-(2-methylpyrimidin-4-yl)-3,4′-bipyridin-2′-amine]: 98%; `Cc1nccc(Nc2cc(-c3cnc4c(c3)C(=O)N(Cc3ccccc3)CC4)ccn2)n1` [Compound I-378, 6-benzyl-3-[2-[(2-methylpyrimidin-4-yl)amino]-4-pyridyl]-7,8-dihydro-1,6-naphthyridin-5-one]: 66%; `CC(=O)Nc1cc(-c2cncc(C(=O)C3CC3)c2)ccn1` [Compound I-8, N-[5-(cyclopropylcarbonyl)-3,4′-bipyridin-2′-yl]acetamide]: more than 99%. Consider `Cc1nccc(Nc2cc(-c3cncc(C(C)Oc4ccccc4Cl)c3)ccn2)n1` (stereo not drawn) [Compound I-336, 5-[1-(2-chlorophenoxy)ethyl]-N-(2-methylpyrimidin-4-yl)-3,4′-bipyridin-2′-amine], for which the inhibition at 1.11 µM amounted to 96%. Turning to `CC(=O)Nc1cc(-c2cnc(C)c(NS(=O)(=O)N(C)c3ccccc3)c2)ccn1` [Compound I-494, N-(6-methyl-5-{[methyl(phenyl)sulfamoyl]amino}-3,4′-bipyridin-2′-yl)acetamide], the inhibition at 1.11 µM stood at 91%. On the same count and under the same terms, next, `CC(=O)Nc1cc(-c2cnc(C)c(NS(=O)(=O)c3cc(C(F)(F)F)ccc3F)c2)ccn1` [Compound I-143, N-[5-({[2-fluoro-5-(trifluoromethyl)phenyl]sulfonyl}amino)-6-methyl-3,4′-bipyridin-2′-yl]acetamide]: more than 99%. Same read-out and setting: next, `Cc1nccc(Nc2cc(-c3cc(NC(=O)N4CC(F)(F)C4)c4ccnn4c3)ccn2)n1` [Compound I-407, 3,3-difluoro-N-(6-{2-[(2-methylpyrimidin-4-yl)amino]pyridin-4-yl}pyrazolo[1,5-a]pyridin-4-yl)azetidine-1-carboxamide]: 98%; `Cc1ccc2ccc(Nc3cc(-c4cnc(C)c(NS(=O)(=O)c5ccc(F)cc5F)c4)ccn3)nc2n1` [Compound I-235, 2,4-difluoro-N-{6-methyl-2′-[(7-methyl-1,8-naphthyridin-2-yl)amino]-3,4′-bipyridin-5-yl}benzenesulfonamide]: 92%. In the case of `COc1ncc(-c2ccnc(NC(C)=O)c2)cc1C(=O)N(C)C` [Compound I-127, 2′-acetamido-6-methoxy-N,N-dimethyl-3,4′-bipyridine-5-carboxamide], the inhibition at 1.11 µM is more than 99%.

Consider `CNc1ncc(-c2ccnc(Nc3ccncn3)c2)cc1C(=O)N(C)C12CC(C1)C2` [Compound I-222, N-(bicyclo[1.1.1]pent-1-yl)-N-methyl-6-(methylamino)-2′-(pyrimidin-4-ylamino)-3,4′-bipyridine-5-carboxamide], for which the inhibition at 1.11 µM turned out to be 93%. In the case of `CC(=O)Nc1cc(-c2cnc(N)c(S(=O)(=O)N3CCCC3)c2)ccn1` [Compound I-87, N-[6-amino-5-(pyrrolidin-1-ylsulfonyl)-3,4′-bipyridin-2′-yl]acetamide], the inhibition at 1.11 µM is more than 99%. Still for that read-out and setting: next, `Cc1nccc(Nc2cc(-c3cnc(C)c(C(=O)N(C)C)c3)ccn2)n1` [Compound I-266, N,N,6-trimethyl-2′-[(2-methylpyrimidin-4-yl)amino]-3,4′-bipyridine-5-carboxamide]: 100%; `CC(=O)Nc1cc(-c2cnc(C)c(NS(=O)(=O)C3CC3)c2)ccn1` [Compound I-114, N-{5-[(cyclopropylsulfonyl)amino]-6-methyl-3,4′-bipyridin-2′-yl}acetamide]: more than 99%. For `Cc1nccc(Nc2cc(-c3cnc(C)c(OC(C)C)c3)ccn2)n1` [Compound I-446, 5-isopropoxy-6-methyl-N-(2-methylpyrimidin-4-yl)-3,4′-bipyridin-2′-amine], the inhibition at 1.11 µM is more than 99%. Consider `CC(=O)Nc1cc(-c2cnc3c(c2)S(=O)(=O)N(C)CN3)ccn1` [Compound I-21, N-[4-(2-methyl-1,1-dioxido-3,4-dihydro-2H-pyrido[2,3-e][1,2,4]thiadiazin-7-yl)pyridin-2-yl]acetamide], for which the inhibition at 1.11 µM is more than 99%.

Turning to `CC(=O)Nc1cc(-c2cnc(N)c(C(=O)NC34CC(C3)C4)c2)ccn1` [Compound I-187, 2′-acetamido-6-amino-N-(bicyclo[1.1.1]pent-1-yl)-3,4′-bipyridine-5-carboxamide], the inhibition at 1.11 µM was more than 99%. In the case of `CC(=O)Nc1cc(-c2cnc(C)c(NS(=O)(=O)c3nccn3C)c2)ccn1` [Compound I-92, N-(6-methyl-5-{[(1-methyl-1H-imidazol-2-yl)sulfonyl]amino}-3,4′-bipyridin-2′-yl)acetamide], the inhibition at 1.11 µM was more than 99%. The same measure, in the same setting: next, `CC(=O)Nc1cc(-c2cncc(S(=O)(=O)NC3C4CC5CC(C4)CC3C5)c2)ccn1` (stereo not drawn) [Compound I-318, N-[5-(adamantan-2-ylsulfamoyl)-3,4′-bipyridin-2′-yl]acetamide]: 97%; `CCN(CC)S(=O)(=O)c1cc(-c2ccnc(NC(C)=O)c2)cnc1C` [Compound I-370, N-[5-(diethylsulfamoyl)-6-methyl-3,4′-bipyridin-2′-yl]acetamide]: more than 99%.

On to `Nc1cncc(-c2ccnc(N)c2)c1` [Compound I-231, 3,4′-bipyridine-2′,5-diamine], for which the inhibition at 1.11 µM was found to be 26%.
